The term IC50 denotes the concentration at which inhibition is half-maximal. What is called EC50 is the concentration at which the effect is half-maximal.

Molecules are shown by their SMILES. A value given as a limit tells only on which side of the number the result lay.

The values that follow come from patent publication US10035792B2, “Resorcinol derivative as HSP90 inhibitor” (priority 2015, dated 2018).

In series [1] the target is HSP90α (Homo sapiens (Human), UniProt P07900). Kind of series: Fluorescence polarization (FP) HSP90-alpha target binding assay. Conditions: fluorescence polarization; read-out: Target binding ability HSP90α FP IC50. The essentials: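 Displacement of 5 nM GM-BODIPY from 30 nM HSP90 measured by fluorescence polarization (ex 485/em 535 nm). Buffer: 100 mM Tris-Cl pH 7.4, 20 mM KCl, 6 mM MgCl2, 5 μg/mL BSA. Incubation 12–16 h at 4 °C. Percent inhibition from mP relative to compound-free and tracer-only controls.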
For orientation: Fluorescence polarisation rises when a labelled molecule tumbles more slowly, as on binding a larger partner.

Series [2] relates to human colon cancer cell line HCT116. The series is described as follows: Tumor cell growth inhibition, SRB staining, HCT116. It counts as cell-based. As to conditions: HCT-116, HCT116, 72 h. As for the experimental part: The growth inhibition assay of tumor cells was detected by sulforhodamine B (SRB) staining method. The specific steps were as follows: inoculating human colon cancer cell line HCT116 and human lung cancer cell line A549 (purchased from American Type Culture Collection, ATCC) at the logarithmic growth phase into a 96-well micro culture plate at an appropriate concentration of 4000 cells/well, 100 μL for each well; after culturing overnight, adding with the compound at different concentrations (100, 10, 1, 0.1, 0.01 μM) to react for 72 h, wherein triplicate wells were set up for each concentration, and solvent control wells with the corresponding concentration and zero wells without cells were also set up. After the completion of the reaction, the culture medium was removed from the adherent cells, the later was added with 10% (w/v) trichloroacetic acid (100 μL/well) at 4° C. to fix for 1 h, and then washed five times with distilled water. After drying at room temperature, 100 μL of SRB solution (4 mg/mL, dissolved in 1% glacial acetic acid) was added into each well, followed by incubation and staining for 15 min at room temperature. The uncombined SRB was removed by washing five times with 1% glacial acetic acid. After drying at room temperature, 100 μL of 10 mM Tris solution was added into each well, and the optical density (OD) at 515 nm was measured by a […] microplate reader. The inhibition rate of the drug to tumor cell growth was calculated according to the following equation: Inhibition rate (%)=(OD of control well-OD of drug well)/OD of control well×100%. The experiment was repeated twice.
In general terms: In SRB staining, fixed cells bind dye roughly in proportion to their protein.

Series [3] deals with A549 tumor cells. The series is described as follows: In vivo efficacy, A549 transplantation tumor in nude mice. Conditions: A549 xenograft, 50 mg/kg intravenously twice a week. The method, then: (§1) A549 tumor cells were subcutaneously inoculated in the right armpit of nude mice in 5×10^6 cells/mouse, to form a transplantion tumor. When the volume reached 100-200 mm^3, the animals were randomly divided according to tumor volume, into the negative control group (n=5), the positive control group groups (n=5 in each group), and the experimental groups (n=5 in each group). The experimental groups were respectively injected intravenously with the positive drug Luminespib (50 mg/kg) and compound 1 (50 mg/kg) at different concentrations, twice a week, and the negative control group was administrated an equal amount of solvent simultaneously. The length (A) and width (B) of the tumor were measured twice a week with a vernier caliper, and the tumor volume was calculated according to V=A×B^2/2. Relative tumor volume (RTV) was calculated as follows: RTV=Vt/V0, wherein Vt is the tumor volume at the end of the administration, and V0 is the tumor volume measured before separation and administration. The pharmacodynamic evaluation index of antitumor activity is relative tumor proliferation rate T/C (%), and the calculation formula is: T/C (%)=TRTV/CRTV×100%, wherein TRTV: RTV of the treatment group; CRTV: RTV of the negative control group. Efficacy evaluation criteria: T/C %>60% is inefficient; T/C %≤60% and P<0.05 by statistical treatment is effective. The tumor growth inhibition rate (TGI) was calculated as follows: TGI (%)={[(CVt−CV0)−(TVt−TV0)]/(CVt−CV0)}×100%
(§2) Wherein, CVt is the tumor volume of the control group at the end of the administration; CV0 is the tumor volume of the control group before separation and administration; TVt is the tumor volume of the administration group at the end of the administration; and TV0 is the tumor volume of the administration group before separation and administration. The difference in tumor volume between the administration group and the control group was examined by t-test. At the same time, the body weights of nude mice in each group were weighed twice a week to preliminarily evaluate the toxic side effects of the drug.

The nature of series [4]: in vivo. On the set-up: species or system SD rats. As to conditions: male, SD, rat, iv, 1 mg/kg. As for the experimental part: SD rats were used as the subject animals. The drug concentrations in plasma, lung and breast tissue were measured by LC/MS/MS method at different times after the compound of Example 67 was intravenously injected at the tails of rats. The tissue distribution of the compounds of the present invention in rats was studied and their pharmacokinetic characteristics were evaluated. 2.1 Experimental Drugs: Luminespib, Ganetespib and the compound of Example 67. Healthy adult male SD rats, 100-200 g, 9 rats in total, purchased from Shanghai Slack Laboratory Animal Co., Ltd. The appropriate amounts of the samples were weighed. All of Luminespib, Ganetespib and the compound 67 of the present invention were formulated into clear solutions in […] in 10% DMSO/14% Cremophor RH40/76% D5W, for intravenous injection. 9 SD male rats were divided into three groups, three rats in each group. After normal feeding, administrations were carried out in tails by intravenous injection at the dose of 1 mg/kg. Samples were collected from blood, lung and breast tissues in three group rats at 0.5 h, 6 h and 24 h after administration. The blood samples were centrifuged at 4° C., 3000 rpm for 15 min within half an hour after collection, to separate and obtain plasma samples. The resulting plasma samples were placed in polypropylene tubes and stored at −80° C. for LC/MS/MS analysis. After the collection of the blood samples, the animals were sacrificed with CO2, followed by collection of the tissue samples. Each of the tissue samples was washed twice with cold deionized water and adhered to filter papers. Each of the tissue samples was then homogenized several times in MeOH/15 mM PBS (1:2) (5 mL MeOH/15 mM PBS (1:2) per gram of tissue, with a dilution factor of 6) to ensure the formation of homogeneous phase. The whole process was carried out below freezing point temperature. The homogenized samples were quickly frozen by using dry ice and stored at −80° C. for bioanalysis. The contents of the test compound in rat plasma, lung and breast tissue after injection administration were measured by LC/MS/MS.

In series [5] the test system is human lung cancer cell line A549. Kind of series: Tumor cell growth inhibition, SRB staining, A549. It counts as cell-based. As to conditions: A549, 72 h. In a few lines: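 Growth inhibition by SRB staining: 4000 cells/well seeded overnight, then compound at 100, 10, 1, 0.1 and 0.01 μM for 72 h in triplicate. Fixed with TCA, OD read at 515 nm. Inhibition rate taken against solvent control; experiment done twice.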

Series [6] concerns BT-474 tumor cells. The series is described as follows: In vivo efficacy, BT-474 breast cancer transplantation tumor in nude mice. Conditions: BT-474 xenograft. As for the experimental part:
as §1, with “BT-474 tumor” for “A549 tumor”, “group (n=6),” for “group (n=5),”, “groups (n=6” for “groups (n=5”, “drug Ganetespib (20” for “drug Luminespib (50”, “compound 67 (10 mg/kg and 20” for “compound 1 (50”, “concentrations, three times” for “concentrations, twice”
as §2

The mark [7] stands for this setting: concentration in breast tissue (nM).
Where [8] appears, read: 10 mpk intravenously three times a week.
Setting [9] is: 20 mpk intravenously three times a week.

For the compound `CCNC(=O)c1noc(-c2cc(C(C)C)c(O)cc2O)c1C1=CC2CN(C)CC2C1` (stereo not drawn) [Example 14, 5-(2,4-dihydroxyl-5-isopropyl-phenyl)-N-ethyl-4-(2-methyl-1,2,3,3a,4,6a-hexahydrocyclopenta[c]pyrrol-5-yl)isoxazole-3-carboxamide], in series [1], the half-maximal inhibitory concentration (IC50) was under 20 nM. This compound also registered an EC50 in series [2] of under 20 nM.
For the compound `CCNC(=O)c1noc(-c2cc(C(C)C)c(O)cc2O)c1-c1ccc(CN2CCOCC2)cc1` [Luminespib], the “TGI (%) Day 7” value in series [3] (Day 7) was 18%. Besides, the “TGI (%) Day 11” value in series [3] (Day 11) was determined as 34%. The “TGI (%) Day 14 (stopping administration)” value in series [3] (Day 14) came out at 49%. Further, the “TGI (%) Day 17” value in series [3] (Day 17) amounted to 52%. For the same compound, the “TGI (%) Day 28” value in series [3] (Day 28) is 35%. The “pulmonary exposure dose” value in series [4] stood at 5284 nM·h. Moreover, the concentration at 0.5 h in series [4] (setting [7]) worked out at 104 nM; in series [4] (plasma concentration (nM)), 67.1 nM; in series [4] (pulmonary concentration (nM)) it was 1000 nM. The concentration at 6 h in series [4] (setting [7]) stood at 61.4 nM; in series [4] (pulmonary concentration (nM)) it was 257 nM. Further, the concentration at 24 h in series [4] (pulmonary concentration (nM)) came to 35.9 nM.
Take `CCNC(=O)c1onc(-c2cc(C(C)C)c(O)cc2O)c1-c1ccc2c(c1)CCNC2` [Example 67, 3-(2,4-dihydroxyl-5-isopropylphenyl)-N-ethyl-4-(1,2,3,4-tetrahydroisoquinolin-6-yl)isoxazole-5-carboxamide]: the IC50 in series [1] was under 20 nM. Also, the EC50 in series [5] was under 20 nM. Besides, in series [4], the “breast tissue exposure dose” value amounted to 7226 nM·h, the “plasma exposure dose” value came to 415 nM·h and the “pulmonary exposure dose” value came out at 30933 nM·h. In series [4] (setting [7]), this compound displayed a concentration at 0.5 h of 395 nM, a concentration at 6 h of 376 nM and a concentration at 24 h of 199 nM. In series [4] (plasma concentration (nM)), this compound returned a concentration at 0.5 h of 115 nM, a concentration at 6 h of 9.98 nM and a concentration at 24 h of 3.72 nM. In series [4] (pulmonary concentration (nM)), the concentration at 0.5 h stood at 3040 nM, the concentration at 6 h turned out to be 1530 nM and the concentration at 24 h amounted to 613 nM. Also, in series [6] (setting [8]), the “TGI (%) Day 21” value is recorded as 137% and the “TGI (%) Day 35” value came out at 120%. Moreover, in series [6] (setting [9]), the “TGI (%) Day 21” value was determined as 135% and the “TGI (%) Day 35” value is on record as 129%.
Regarding `CC(C)c1cc(-c2n[nH]c(=O)n2-c2ccc3c(ccn3C)c2)c(O)cc1O` [Ganetespib], the concentration at 0.5 h is 352 nM in series [4] (setting [7]), 267 nM in series [4] (plasma concentration (nM)) and 1010 nM in series [4] (pulmonary concentration (nM)). The concentration at 6 h came to 70.9 nM in series [4] (setting [7]), 4.46 nM in series [4] (plasma concentration (nM)) and 101 nM in series [4] (pulmonary concentration (nM)). The “TGI (%) Day 21” value in series [6] (setting [9]) turned out to be 124%. For the same compound, the “TGI (%) Day 35” value in series [6] (setting [9]) amounted to 108%.
For the compound `CCNC(=O)c1noc(-c2cc(C(C)C)c(O)cc2O)c1-c1ccc2c(c1)N(C)CCC2` [Example 2, 5-(2,4-dihydroxyl-5-isopropylphenyl)-N-ethyl-4-(1-methyl-1,2,3,4-tetrahydroquinolin-7-yl)isoxazole-3-carboxamide], the IC50 in series [1] lay in the range of 20 to 100 nM. For the same compound, the EC50 in series [2] was in the range of 20 to 100 nM.
As to `CCNC(=O)c1nsc(-c2cc(C(C)C)c(O)cc2O)c1-c1ccc2c(c1)CCN(C)C2` [Example 13, 5-(2,4-dihydroxyl-5-isopropyl-phenyl)-N-ethyl-4-(2-methyl-1,2,3,4-tetrahydroisoquinolin-6-yl)isothiazole-3-carboxamide], the half-maximal inhibitory concentration (IC50) in series [1] is over 100 nM. The compound also returned a concentration for a half-maximal effect (EC50) in series [2] of over 100 nM.
In the case of `CCNC(=O)c1onc(-c2cc(C(C)C)c(O)cc2O)c1-c1ccc2cnccc2c1` [Example 29, 3-(2,4-dihydroxyl-5-isopropylphenyl)-N-ethyl-4-(isoquinolin-6-yl)isoxazole-5-carboxamide], in series [1], the IC50 is under 20 nM. In series [5], this compound yielded an EC50 of 20 to 100 nM.
In the same order, the values of `CCNC(=O)c1noc(-c2cc(Cl)c(O)cc2O)c1-c1ccc2c(c1)CCN(C)C2` [Example 31, 5-(2,4-dihydroxyl-5-chloro-phenyl)-N-ethyl-4-(2-methyl-1,2,3,4-tetrahydroisoquinolin-6-yl)isoxazole-3-carboxamide] are 20 to 100 nM and over 100 nM.
